Where two headings read alike, the source gives them in different places. Blank lines part the entries; values can stand above or below the molecule they belong to.
Assays:
Prepubescent female rats = experiment: Estrogenic / uterotrophic activity in vivo (uterus wet weight); design: species or system rat; conditions: Table 4, orally 3 mg/rat/day for 3 days; for change in vivo at 3 mg: Rattus norvegicus, po, 72 h, read-out: % stimulation vs vehicle (uterus weight)
Procedure: Prepubescent female rats were orally treated at 3 mg/rat/day for 3 days. On the day following the last treatment, uteri were removed and wet weights were recorded.
The results are expressed as % of stimulation of uterus weight in comparison with vehicles. […]
Prepubescent female rats were orally treated with 0.3; 1; 3 or 10 mg/rat/day for 3 days. On the day following the last treatment, uteri were removed and wet weights were recorded.

[1] = test system: human breast cancer cell line MCF-7; experiment: Proliferative activity in vitro (ATP luminescence, 6 days); assay type: cell-based; conditions: for activity at 1 µM: read-out: Effect at 10^−6 M (% of control); for activity at 0.01 µM: read-out: Effect at 10^−8 M (% of control); for EC50: MCF-7, six days, read-out: Cell proliferation EC50 (nM) ± S.E.M
Procedure: The proliferative effect of the compounds of the invention was evaluated on human breast cancer cell line MCF-7 by measuring the number of viable cells after 6 days of treatment.
MCF-7 cells were routinely cultured as monolayers in Dulbecco's modified Eagle's medium (DMEM) containing 4 mM Glutamax and 4.5 g/l glucose and supplemented with 5% (v/v) decomplemented fetal calf serum (dFCS) and antibiotics.
Cells were plated at 2.10^6 cells/75 cm^2 flasks and incubated at 37° C. in a humidified atmosphere containing 5% CO2. They were passaged once weekly to maintain continuous exponential growth. Forty eight hours before the start of an experiment, near-confluent cells were changed to a phenol red free DMEM containing 5% steroid-stripped dFCS by dextran coated charcoal treatment (DCC-DMEM). On the day of the experiment, cells were harvested by brief exposure to trypsin and plated in DCC-DMEM in 96-well microplates at a density of 4.10^3 cells/well. The next day, the medium was renewed and test compounds, diluted appropriately in estrogen-free DMEM, were added and incubated for six days. […] At the end of the incubation period, cell proliferation was evaluated by quantitation of the cellular ATP content which signals the presence of metabolically active cells.
The assay, based on the ATP-dependent luciferase reaction, enables generation of a luminescent signal proportional to the amount of ATP present. As there is a linear relationship between the amount of ATP and the number of viable cells present in culture, the luminescent signal allowed to precisely evaluate cell proliferation (Crouch, S. P. M. et al. J. Immunol. Meth., 1993, 160, 81; Kangas, L. et al. Med. Biol. 1984, 62, 338; Petty, R. D. et al. J. Biolum. Chemilum. 1995, 10, 29).
In brief, the microplates were inverted to discard the culture medium and 100 μl of fresh medium was added into each well. The microplates were equilibrated at room temperature for approximately 30 minutes. 100 μl of luciferase reagent was added into each well and contents were mixed for 2 minutes to induce cell lysis. The plates were incubated at room temperature for 10 minutes to stabilize luminescence signal.
Luminescence was recorded using a microplate reader (Wallac, model 1420 Victor^2) and results were expressed as percentage of the control luminescence. Sigmoidal dose-response curves were plotted and EC50 values were calculated for each compound in order to evaluate their proliferative potency.

[2] = target: T1, purified full-length recombinant human ERα (Homo sapiens, UniProt P03372); experiment: Estrogen receptor α competitive radiometric binding assay ([3H]-E2); conditions: for RBA (%) Mean ± S.E.M, ER α: ratio of IC50s of E2 and competitor, E2 set at 100%
T1 sequence (P03372 1-595): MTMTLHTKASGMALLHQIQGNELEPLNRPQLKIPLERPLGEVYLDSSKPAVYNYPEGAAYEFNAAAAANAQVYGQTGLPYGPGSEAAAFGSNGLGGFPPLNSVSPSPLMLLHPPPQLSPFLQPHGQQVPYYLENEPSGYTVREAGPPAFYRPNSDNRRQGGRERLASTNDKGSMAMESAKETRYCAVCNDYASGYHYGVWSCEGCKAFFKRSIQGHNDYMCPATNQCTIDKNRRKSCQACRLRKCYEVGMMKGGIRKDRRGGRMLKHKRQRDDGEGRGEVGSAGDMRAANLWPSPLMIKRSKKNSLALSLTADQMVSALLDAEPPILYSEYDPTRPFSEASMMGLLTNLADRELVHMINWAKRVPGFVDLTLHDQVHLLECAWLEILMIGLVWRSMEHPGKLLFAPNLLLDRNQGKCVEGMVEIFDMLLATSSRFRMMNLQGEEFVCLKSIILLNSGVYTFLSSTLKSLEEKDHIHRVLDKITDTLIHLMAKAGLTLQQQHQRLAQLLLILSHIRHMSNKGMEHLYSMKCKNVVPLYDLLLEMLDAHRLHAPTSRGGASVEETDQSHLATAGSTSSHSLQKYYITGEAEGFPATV
Procedure: (§1) Relative binding affinities (RBA) were determined by competitive radiometric binding assays, using purified full-length recombinant human ERα and ERβ (PanVera, Madison, Wis.). […] After shaking for a few seconds and centrifugation at 1500 g and 4° C. for 10 minutes, 150 μl/well of Optiphase ‘Super Mix’ scintillation liquid was mixed with 50 μl of supernatant of each sample and the radioactivity was measured in a MicroBeta counter (Wallac, Turku, Finland). Data were evaluated by a sigmoidal dose-response curve (Prism, GraphPad Software Inc.) to estimate the concentration of competitor at half-maximal specific binding (IC50). […] The selectivity for ERα and ERβ was obtained from the ratio R of the IC50 for ERα to the IC50 for ERβ for each test compound.

[3] = target: purified full-length recombinant human ERβ (Homo sapiens, UniProt Q92731); experiment: Estrogen receptor β competitive radiometric binding assay ([3H]-E2); conditions: for RBA (%) Mean ± S.E.M, ER β: ratio of IC50s of E2 and competitor, E2 set at 100%; for R (IC50s) αβ: ratio of the IC50 for ERα to the IC50 for ERβ
Procedure: as §1

[4] = test system: human endometrial adenocarcinoma Ishikawa cells; experiment: Estrogenic and anti-estrogenic activities in vitro: induction of alkaline phosphatase (APase) activity; assay type: cell-based; conditions: for EC50: compound alone, four days, ND = not detected, read-out: Estrogenic activity EC50 (nM) ± S.E.M
Procedure: The estrogenic and anti-estrogenic potentials of new compounds were evaluated using the induction of alkaline phosphatase (APase) activity, an estrogen specific response in human endometrial adenocarcinoma Ishikawa cells (Botella J., J Steroid Biochem Molec Biol, 1995, 55: 77-84; Littlefield et al., Endocrinology, 1990, 127: 2757-2762).
Ishikawa cells were routinely grown as monolayers in Dulbecco's Modified Eagle's medium (DMEM) containing 4 mM Glutamax I and supplemented with 10% of decomplemented fetal calf serum (dFCS) and antibiotics. They were maintained in a humidified atmosphere of 5% CO2 and 95% air, at 37±0.1° C. Stocks were performed once a week to maintain continuous exponential growth.
For studies, Ishikawa cells were plated into 96-well microplates. The next day, the medium was changed to a phenol red-free DMEM containing 5% dFCS stripped of endogenous estrogens by dextran coated charcoal treatment.
At the end of the incubation period, APase activity was assayed by a method involving the hydrolysis of p-nitrophenyl phosphate to p-nitrophenol at pH 9.8 and spectrophotometric determination of the product at 405 nm.
In brief, the microplates were first rinsed twice with cold phosphate buffered solution and then placed at −80° C. for at least 15 minutes. After thawing at room temperature for 5-10 minutes, the plates were put on ice and 50 μl ice-cold solution containing 5 mM p-nitrophenyl phosphate was added to each well. The plates were warmed to room temperature to allow for the development of the enzymatic reaction (t0). After a 15 to 60 minute incubation period, the intensity of the yellow color generated by the production of p-nitrophenol was measured into each well at 405 nm using a microplate reader (Wallac, model 1420 Victor^2). […] Sigmoidal dose-response curves were plotted and EC50 (estrogenic effect) and IC50 (anti-estrogenic effect) values were calculated for each compound.

[5] = Homo sapiens, MCF7, 144 h, MCF-7, 10^−6 M, six days
[6] = Homo sapiens, MCF7, 144 h, MCF-7, 10^−8 M, six days

purified full-length recombinant human ERβ, sequence (Q92731 whole entry): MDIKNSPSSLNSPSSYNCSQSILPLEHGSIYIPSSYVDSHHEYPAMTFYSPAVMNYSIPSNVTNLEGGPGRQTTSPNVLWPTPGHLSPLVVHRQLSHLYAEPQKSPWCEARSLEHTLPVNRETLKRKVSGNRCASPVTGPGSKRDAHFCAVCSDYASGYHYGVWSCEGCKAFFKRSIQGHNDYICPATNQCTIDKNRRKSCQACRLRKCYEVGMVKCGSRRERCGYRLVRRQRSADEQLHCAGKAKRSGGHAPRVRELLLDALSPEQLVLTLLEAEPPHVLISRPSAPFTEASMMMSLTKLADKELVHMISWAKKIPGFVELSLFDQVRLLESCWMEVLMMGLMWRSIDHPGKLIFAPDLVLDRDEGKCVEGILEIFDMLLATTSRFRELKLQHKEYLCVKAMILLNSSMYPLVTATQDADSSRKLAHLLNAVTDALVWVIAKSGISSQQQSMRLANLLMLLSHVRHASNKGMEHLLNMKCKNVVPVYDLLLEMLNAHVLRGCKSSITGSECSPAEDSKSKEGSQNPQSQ

Molecule: CC/C(=C(\c1ccccc1)c1ccc(OCCN(C)C)cc1)c1ccccc1 [TAM, tamoxifen, reference compound]
change in vivo at 3 mg (Prepubescent female rats): 206%

melting point: 188 °C
Molecule: Cn1nc(C2CCCCC2)c2ccc(S(N)(=O)=O)cc21 [Example 36, 3-cyclohexyl-1-methyl-1H-indazole-6-sulfonamide]

melting point: 111 °C
Molecule: Cl.Oc1ccc(C2=COc3cc(O)cc4[nH]nc2c34)cc1

melting point: 132 °C
Molecule: NS(=O)(=O)Oc1ccc2c(C3CCCC3)nsc2c1 [Example 96, 3-cyclopentyl-1,2-benzisothiazol-6-yl sulfamate]

melting point: 155 °C
Molecule: NS(=O)(=O)n1nc(C2CCCCCC2)c2ccc(O)cc21 [Example 39, 3-cycloheptyl-6-hydroxy-1H-indazole-1-sulfonamide]

EC50 ([1]; Homo sapiens, MCF7, 144 h): 635 ± 285 nM | melting point: 201 °C | IC50 [2]: 139 ± 33.9 nM | RBA (%) Mean ± S.E.M, ER α [2]: 2.4 ± 0.7% | IC50 [3]: 14.4 ± 5.3 nM | RBA (%) Mean ± S.E.M, ER β [3]: 35.9 ± 14.0% | R (IC50s) αβ [3]: 9.7
Molecule: N#CC(Cc1ccc(O)c(F)c1)c1noc2cc(O)ccc12 (centres unmarked) [Ex 81, 2-(6-hydroxy-1,2-benzisoxazol-3-yl)-3-(3-fluoro-4-hydroxyphenyl)-propanenitrile]
activity at 1 µM [1, 5]: 117% | activity at 0.01 µM [1, 6]: 86.8% | change in vivo at 3 mg (Prepubescent female rats): 49%

Molecule: CCCc1c(-c2ccc(O)cc2)nn(-c2ccc(O)cc2)c1-c1ccc(O)cc1 [PPT, 1,3,5-tris-(4-hydroxyphenyl)-4-propyl-1H-pyrazole, reference compound]
change in vivo at 3 mg (Prepubescent female rats): 96%

EC50 ([4]; Homo sapiens, Ishikawa, 96 h): 147 ± 39.9 nM | EC50 ([1]; Homo sapiens, MCF7, 144 h): 45.2 ± 25.6 nM | IC50 [2]: 67.5 ± 5 nM | RBA (%) Mean ± S.E.M, ER α [2]: 3.4 ± 0.4% | IC50 [3]: 7.5 ± 0.7 nM | RBA (%) Mean ± S.E.M, ER β [3]: 43.0 ± 7.8% | R (IC50s) αβ [3]: 9.0
Molecule: N#CC(Cc1ccc(O)cc1)c1noc2cc(O)ccc12 (centres unmarked) [Ex 80, 2-(6-hydroxy-1,2-benzisoxazol-3-yl)-3-(4-hydroxyphenyl) propanenitrile]
activity at 1 µM [1, 5]: 147% | activity at 0.01 µM [1, 6]: 110% | change in vivo at 3 mg (Prepubescent female rats): 70%

Molecule: N#CC(Cc1ccc(O)cc1)c1ccc(O)cc1 (centres unmarked) [DPN, 2,3-bis-(4-hydroxyphenyl)propionitrile, reference compound]
change in vivo at 3 mg (Prepubescent female rats): 358%

melting point: 154 °C
Molecule: Oc1ccc2c(C3CCCCC3)nn(Cc3ccccc3)c2c1 [Example 29, 1-benzyl-3-cyclohexyl-1H-indazol-6-ol]

EC50 [4]: 374 ± 43 nM | EC50 [1]: 58.2 ± 15 nM | RBA (%) Mean ± S.E.M, ER α [2]: 0.1 ± 0.02% | IC50 ([2]; read-out: IC50 (nM) Mean ± S.E.M, ER α, 2 nM [3H]-E2, 4° C., 18-20 hours): 2690 ± 593 nM | selectivity for the human recombinant estrogen receptor β ([3]; in words): marked selectivity | RBA (%) Mean ± S.E.M, ER β [3]: 0.9 ± 0.1% | R (IC50s) αβ [3]: 10.8 | IC50 ([3]; read-out: IC50 (nM) Mean ± S.E.M, ER β, 2 nM [3H]-E2, 4° C., 18-20 hours): 248 ± 48.7 nM
Molecule: 1-(aminosulfonyl)-3-cyclohexyl-1H-indazol-6-yl-sulfamate [Ex 35]
estrogenic effect in alkaline phosphatase activity in the Ishikawa cell model ([4]; in words): weak estrogenic effect | Effect at 10^−6 M (% of control) ([1]; MCF-7, 10^−6 M, six days): 162.6 % of control | Effect at 10^−8 M (% of control) ([1]; MCF-7, 10^−8 M, six days): 94.4 % of control | % stimulation vs vehicle (uterus weight) (Prepubescent female rats): 38%

melting point: 145 °C
Molecule: NS(=O)(=O)Oc1ccc2c(C3CCCCC3)noc2c1 [Example 76, 3-cyclohexyl-1,2-benzisoxazol-6-yl sulfamate]

melting point: 131 °C
Molecule: COc1ccc2c(C(C#N)Cc3ccc(O)cc3C)noc2c1 (centres unmarked) [Example 82, 2-(6-methoxy-1,2-benzisoxazol-3-yl)-3-(4-hydroxy-2-methylphenyl)-propanenitrile]

melting point: 205 °C
Molecule: Cn1nc(C2CCCCC2)c2ccc(O)cc21 [Example 25, 3-cyclohexyl-1-methyl-1H-indazol-6-ol]

melting point: 95 °C
Molecule: Cl.Oc1ccc2c(C3CCCCCC3)n[nH]c2c1

melting point: 82 °C
Molecule: NS(=O)(=O)Oc1ccc2c(C3CCCCCC3)noc2c1 [Example 75, 3-cycloheptyl-1,2-benzisoxazol-6-yl sulfamate]

melting point: 80 °C
Molecule: c1ccc(COc2ccc3c(C4CCCCCC4)noc3c2)cc1 [Example 63, 6-benzyloxy-3-cycloheptyl-1,2-benzisoxazole]

melting point: 255 °C
Molecule: COc1ccc(C2=COc3cc(O)cc4[nH]nc2c34)cc1.Cl

melting point: 120 °C
Molecule: Cl.Oc1ccc2c(C3CCCC3)nn(CCN3CCCCC3)c2c1

melting point: 87 °C
Molecule: NS(=O)(=O)Oc1ccc2c(C34CC5CC(CC(C5)C3)C4)noc2c1 [Example 74, 3-(1-adamantyl)-1,2-benzisoxazol-6-yl sulfamate]

melting point: 178 °C
Molecule: Oc1ccc(-n2nc(C3CCCC3)c3ccc(O)cc32)cc1 [Example 26, 3-cyclopentyl-1-(4-hydroxyphenyl)-1H-indazol-6-ol]

melting point: 147 °C
Molecule: Oc1ccc2c(C3CCCC3)nn(Cc3ccc(Br)cc3)c2c1 [Example 28, 1-(4-bromobenzyl)-3-cyclopentyl-1H-indazol-6-ol]

melting point: 215 °C
Molecule: Oc1ccc2c(C34CC5CC(CC(C5)C3)C4)noc2c1 [Example 64, 3-(1-adamantyl)-1,2-benzisoxazol-6-ol]

melting point: 130 °C
Molecule: Oc1ccc2c(C3CCCC3)nsc2c1 [Example 94, 3-cyclopentyl-1,2-benzisothiazol-6-ol]

Source: US7977364B2, “Indazoles, benzisoxazoles and benzisothiazoles and their use as estrogenic agents” (Laboratoire Thermamex, priority 2004, dated 2011)
